# According to publication PMC5218480 (PLoS ONE, 2017):
# Tested on: MV-4-11 cells
# Test: Gene expression microarray analysis (Affymetrix PrimeView) and GSEA
# Assay type: cell-based, human
# Set-up: RFU PODN (11730768_x_at) / Fold change /veh PODN (11730768_x_at) / RFU LINC00158 (11744669_a_at) / Fold change /veh LINC00158 (11744669_a_at) / RFU DUSP10 (11751237_a_at) / Fold change /veh DUSP10 (11751237_a_at) / RFU ID3 (11757404_x_at) / Fold change /veh ID3 (11757404_x_at) / RFU PLEKHG5 (11737974_s_at) / Fold change /veh PLEKHG5 (11737974_s_at) / RFU LRRC4B (11730491_at) / Fold change /veh LRRC4B (11730491_at) / RFU GIMAP4 (11747438_a_at) / Fold change /veh GIMAP4 (11747438_a_at) / RFU KRT8 (11758183_x_at) / Fold change /veh KRT8 (11758183_x_at) / RFU CNN1 (11734310_a_at) / Fold change /veh CNN1 (11734310_a_at) / RFU VPS37D (11726825_at) / Fold change /veh VPS37D (11726825_at) / RFU C10orf10 (11716522_x_at) / Fold change /veh C10orf10 (11716522_x_at) / RFU KIR2DL2 /// KIR2DL4 /// KIR2DL5A /// KIR2DL5B /// KIR2DS1 /// KIR2DS2 /// KIR2DS3 /// KIR2DS4 /// KIR3DL3 /// KIR3DL3 /// KIR3DS1 (11738374_at) / Fold change /veh KIR2DL2 /// KIR2DL4 /// KIR2DL5A /// KIR2DL5B /// KIR2DS1 /// KIR2DS2 /// KIR2DS3 /// KIR2DS4 /// KIR3DL3 /// KIR3DL3 /// KIR3DS1 (11738374_at) / RFU C1QL1 (11718748_at) / Fold change /veh C1QL1 (11718748_at) / RFU TMPRSS4 (11747572_a_at) / Fold change /veh TMPRSS4 (11747572_a_at) / RFU HAMP (11756126_x_at) / Fold change /veh HAMP (11756126_x_at) / RFU RNFT2 (11725882_a_at) / Fold change /veh RNFT2 (11725882_a_at) / RFU NR4A2 (11747474_a_at) / Fold change /veh NR4A2 (11747474_a_at) / RFU ABCC12 (11746883_a_at) / Fold change /veh ABCC12 (11746883_a_at) / RFU TMEM136 (11760407_x_at) / Fold change /veh TMEM136 (11760407_x_at) / RFU CLDN22 /// WWC2 (11732394_at) / Fold change /veh CLDN22 /// WWC2 (11732394_at) / RFU HLA-DPB1 (11760878_x_at) / Fold change /veh HLA-DPB1 (11760878_x_at) / RFU SPINT1 (11716480_a_at) / Fold change /veh SPINT1 (11716480_a_at) / RFU GAP43 (11754022_s_at) / Fold change /veh GAP43 (11754022_s_at) / RFU A4GNT (11735810_at) / Fold change /veh A4GNT (11735810_at) / RFU PRB3 (11715151_x_at) / Fold change /veh PRB3 (11715151_x_at) / RFU TUBB4B (11761932_at) / Fold change /veh TUBB4B (11761932_at) / RFU CAPN14 (11732068_a_at) / Fold change /veh CAPN14 (11732068_a_at) / RFU TMCC2 (11721928_a_at) / Fold change /veh TMCC2 (11721928_a_at) / RFU IRGQ (11745062_a_at) / Fold change /veh IRGQ (11745062_a_at) / RFU FAM174B (11720279_a_at) / Fold change /veh FAM174B (11720279_a_at) / RFU TMPRSS4 (11748680_a_at) / Fold change /veh TMPRSS4 (11748680_a_at) / RFU FAM212B (11763350_a_at) / Fold change /veh FAM212B (11763350_a_at) / RFU PLEKHG5 (11743358_a_at) / Fold change /veh PLEKHG5 (11743358_a_at) / RFU ZSCAN30 (11745921_a_at) / Fold change /veh ZSCAN30 (11745921_a_at) / RFU CMKLR1 (11741424_a_at) / Fold change /veh CMKLR1 (11741424_a_at) / RFU LOC101060620 /// MAPK8IP1 (11723275_at) / Fold change /veh LOC101060620 /// MAPK8IP1 (11723275_at) / RFU SPTSSB (11747773_x_at) / Fold change /veh SPTSSB (11747773_x_at) / RFU PRSS12 (11739890_at) / Fold change /veh PRSS12 (11739890_at) / RFU BIN1 (11741810_x_at) / Fold change /veh BIN1 (11741810_x_at) / RFU WNT11 (11732464_a_at) / Fold change /veh WNT11 (11732464_a_at) / RFU C10orf10 (11716521_a_at) / Fold change /veh C10orf10 (11716521_a_at) / RFU C5orf56 (11738089_at) / Fold change /veh C5orf56 (11738089_at) / RFU CYB561 (11721691_x_at) / Fold change /veh CYB561 (11721691_x_at) / RFU ANKRD19P (11752326_a_at) / Fold change /veh ANKRD19P (11752326_a_at) / RFU OR2T12 /// OR2T33 /// OR2T8 (11738714_s_at) / Fold change /veh OR2T12 /// OR2T33 /// OR2T8 (11738714_s_at) / RFU VCAN (11748164_a_at) / Fold change /veh VCAN (11748164_a_at) / RFU JSRP1 (11732532_at) / Fold change /veh JSRP1 (11732532_at) / RFU KRTAP10-11 (11738290_x_at) / Fold change /veh KRTAP10-11 (11738290_x_at) / RFU MYO3A (11730013_a_at) / Fold change /veh MYO3A (11730013_a_at) / RFU EBF3 (11725865_a_at) / Fold change /veh EBF3 (11725865_a_at) / RFU CAMK2N1 (11719241_x_at) / Fold change /veh CAMK2N1 (11719241_x_at) / RFU C5orf56 (11738088_a_at) / Fold change /veh C5orf56 (11738088_a_at) / RFU OLFML3 (11715873_a_at) / Fold change /veh OLFML3 (11715873_a_at) / RFU LOC100653217 /// NTM (11731650_a_at) / Fold change /veh LOC100653217 /// NTM (11731650_a_at) / RFU MAPK11 (11762145_a_at) / Fold change /veh MAPK11 (11762145_a_at) / RFU FIZ1 (11724087_x_at) / Fold change /veh FIZ1 (11724087_x_at) / RFU OASL (11726364_x_at) / Fold change /veh OASL (11726364_x_at) / RFU SOX15 (11748057_x_at) / Fold change /veh SOX15 (11748057_x_at) / RFU CD79A (11719716_a_at) / Fold change /veh CD79A (11719716_a_at) / RFU HIST1H1D (11736915_at) / Fold change /veh HIST1H1D (11736915_at) / RFU CASKIN2 (11723855_a_at) / Fold change /veh CASKIN2 (11723855_a_at) / RFU LOC730098 (11760151_x_at) / Fold change /veh LOC730098 (11760151_x_at) / RFU OR4N2 (11742367_at) / Fold change /veh OR4N2 (11742367_at) / RFU PRRT2 (11749266_a_at) / Fold change /veh PRRT2 (11749266_a_at) / RFU SNX32 (11753110_a_at) / Fold change /veh SNX32 (11753110_a_at) / RFU CDHR5 (11726645_a_at) / Fold change /veh CDHR5 (11726645_a_at) / RFU RCAN1 (11760418_a_at) / Fold change /veh RCAN1 (11760418_a_at) / RFU FAM167A (11723789_a_at) / Fold change /veh FAM167A (11723789_a_at) / RFU FAM26E (11764081_at) / Fold change /veh FAM26E (11764081_at) / RFU ISYNA1 (11749810_s_at) / Fold change /veh ISYNA1 (11749810_s_at) / RFU ACY1 (11761880_at) / Fold change /veh ACY1 (11761880_at) / RFU 11764098_at / Fold change /veh 11764098_at / RFU SAMD14 (11745864_x_at) / Fold change /veh SAMD14 (11745864_x_at) / RFU NPB (11741838_a_at) / Fold change /veh NPB (11741838_a_at) / RFU TMPRSS6 (11731388_a_at) / Fold change /veh TMPRSS6 (11731388_a_at) / RFU KRTAP10-2 (11738614_at) / Fold change /veh KRTAP10-2 (11738614_at) / RFU ARHGAP8 /// PRR5-ARHGAP8 (11727945_x_at) / Fold change /veh ARHGAP8 /// PRR5-ARHGAP8 (11727945_x_at) / RFU KRTAP5-7 /// NADSYN1 (11734609_at) / Fold change /veh KRTAP5-7 /// NADSYN1 (11734609_at) / RFU RASL12 (11751679_a_at) / Fold change /veh RASL12 (11751679_a_at) / RFU CDKN2B (11736163_a_at) / Fold change /veh CDKN2B (11736163_a_at) / RFU PRF1 (11729649_at) / Fold change /veh PRF1 (11729649_at) / RFU, ZNF638 /// ZNF638-IT1 / Fold change vs veh, ZNF638 /// ZNF638-IT1 / RFU, PANK3 / Fold change vs veh, PANK3 / RFU, SH3YL1 / Fold change vs veh, SH3YL1 / RFU, ZEB2 / Fold change vs veh, ZEB2 / RFU, NRIP1 / Fold change vs veh, NRIP1 / RFU, PTTG1IP / Fold change vs veh, PTTG1IP / RFU, CAPN2 / Fold change vs veh, CAPN2 / RFU, MED14 / Fold change vs veh, MED14 / RFU, SNORA58 / Fold change vs veh, SNORA58 / RFU, C1orf63 / Fold change vs veh, C1orf63 / RFU, LRRFIP1 / Fold change vs veh, LRRFIP1 / RFU, NDUFAF7 / Fold change vs veh, NDUFAF7 / RFU, SLC12A2 / Fold change vs veh, SLC12A2 / RFU, IBTK / Fold change vs veh, IBTK / RFU, ESF1 / Fold change vs veh, ESF1 / Fold change vs veh, TMEM50B / RFU, TAOK1 / Fold change vs veh, TAOK1 / RFU, ACBD3 / Fold change vs veh, ACBD3 / RFU, TMA16 / Fold change vs veh, TMA16 / RFU, RWDD3 / Fold change vs veh, RWDD3 / RFU, BCAT1 / Fold change vs veh, BCAT1 / RFU, EDEM3 / Fold change vs veh, EDEM3 / RFU, TMEM33 / Fold change vs veh, TMEM33 / RFU, WDR75 / Fold change vs veh, WDR75 / RFU, AHCTF1 / Fold change vs veh, AHCTF1 / RFU, TFRC / Fold change vs veh, TFRC / RFU, ZDHHC17 / Fold change vs veh, ZDHHC17 / RFU, NOM1 / Fold change vs veh, NOM1 / RFU, ARL8B / Fold change vs veh, ARL8B / RFU, ZBTB11 / Fold change vs veh, ZBTB11 / RFU, TAMM41 / Fold change vs veh, TAMM41 / RFU, KIAA1704 /// LOC100996395 / Fold change vs veh, KIAA1704 /// LOC100996395 / RFU, ING1 / Fold change vs veh, ING1 / RFU, TRMT61B / Fold change vs veh, TRMT61B / RFU, FUBP3 / Fold change vs veh, FUBP3 / RFU, TP53 / Fold change vs veh, TP53 / RFU, TNKS2 / Fold change vs veh, TNKS2 / RFU, ZFP14 / Fold change vs veh, ZFP14 / RFU, ACTR2 / Fold change vs veh, ACTR2 / RFU, PPP3R1 / Fold change vs veh, PPP3R1 / RFU, PIK3R1 / Fold change vs veh, PIK3R1 / RFU, HNRNPA1 / Fold change vs veh, HNRNPA1 / RFU, RNF170 / Fold change vs veh, RNF170 / RFU, ZNF28 / Fold change vs veh, ZNF28 / RFU, RNGTT / Fold change vs veh, RNGTT / RFU, OGT / Fold change vs veh, OGT / RFU, BRD1 / Fold change vs veh, BRD1 / RFU, MARS / Fold change vs veh, MARS / RFU, ZNF655 / Fold change vs veh, ZNF655 / RFU, FAHD1 / Fold change vs veh, FAHD1 / RFU, BDP1 / Fold change vs veh, BDP1 / RFU, LRRCC1 / Fold change vs veh, LRRCC1 / RFU, ARID1A / Fold change vs veh, ARID1A / RFU, ZNF146 / Fold change vs veh, ZNF146 / RFU, ZNF330 / Fold change vs veh, ZNF330 / RFU, GPN3 / Fold change vs veh, GPN3 / RFU, C9orf123 / Fold change vs veh, C9orf123 / RFU, N4BP2L2 / Fold change vs veh, N4BP2L2 / RFU, ARFIP1 / Fold change vs veh, ARFIP1 / RFU, FAM179B / Fold change vs veh, FAM179B / RFU, BCL10 / Fold change vs veh, BCL10 / RFU, UHRF1BP1L / Fold change vs veh, UHRF1BP1L / RFU, BET1 / Fold change vs veh, BET1 / RFU, CNOT2 / Fold change vs veh, CNOT2 / RFU, ZNF268 / Fold change vs veh, ZNF268 / Fold change vs veh, ZNF507 / RFU, DGCR2 / Fold change vs veh, DGCR2 / RFU, WDSUB1 / Fold change vs veh, WDSUB1 / Fold change vs veh, HSP90B1 /// MIR3652 / RFU, ADSS / Fold change vs veh, ADSS / RFU, GK / Fold change vs veh, GK / RFU, ZNF148 / Fold change vs veh, ZNF148 / RFU, TAF9 / Fold change vs veh, TAF9 / RFU, SLC1A5 / Fold change vs veh, SLC1A5 / RFU, SLMO2 / Fold change vs veh, SLMO2 / RFU, ABCC4 / Fold change vs veh, ABCC4 / RFU, LOC101060439 /// RAP1B / Fold change vs veh, LOC101060439 /// RAP1B / RFU, RFX7 / Fold change vs veh, RFX7 / RFU, GTPBP10 / Fold change vs veh, GTPBP10 / RFU, CNEP1R1 / Fold change vs veh, CNEP1R1 / RFU, BIVM-ERCC5 /// ERCC5 / Fold change vs veh, BIVM-ERCC5 /// ERCC5 / RFU, ILF3 / Fold change vs veh, ILF3 / RFU 11762660_at / Fold change /veh 11762660_at / RFU VCAN (11757783_s_at) / Fold change /veh VCAN (11757783_s_at) / RFU DDX43 (11728927_at) / Fold change /veh DDX43 (11728927_at) / RFU KRT8 (11758188_x_at) / Fold change /veh KRT8 (11758188_x_at) / RFU NKD1 (11759106_at) / Fold change /veh NKD1 (11759106_at) / RFU SRD5A1 (11742802_a_at) / Fold change /veh SRD5A1 (11742802_a_at) / RFU TPSAB1 /// TPSB2 (11721975_s_at) / Fold change /veh TPSAB1 /// TPSB2 (11721975_s_at) / RFU GSTM3 (11746129_a_at) / Fold change /veh GSTM3 (11746129_a_at) / RFU IL23R (11737362_x_at) / Fold change /veh IL23R (11737362_x_at) / RFU TMEM51 (11727254_a_at) / Fold change /veh TMEM51 (11727254_a_at) / RFU PIWIL2 (11732686_x_at) / Fold change /veh PIWIL2 (11732686_x_at) / RFU ORM1 (11744905_x_at) / Fold change /veh ORM1 (11744905_x_at) / RFU CCDC152 (11743942_at) / Fold change /veh CCDC152 (11743942_at) / RFU ECM1 (11717891_a_at) / Fold change /veh ECM1 (11717891_a_at) / RFU IL23R (11748794_a_at) / Fold change /veh IL23R (11748794_a_at) / RFU TNFAIP8L3 (11732012_x_at) / Fold change /veh TNFAIP8L3 (11732012_x_at) / RFU MBOAT4 (11741988_at) / Fold change /veh MBOAT4 (11741988_at) / RFU 11764193_at / Fold change /veh 11764193_at / RFU TMEM53 (11763286_at) / Fold change /veh TMEM53 (11763286_at) / RFU MAGEB2 (11727129_at) / Fold change /veh MAGEB2 (11727129_at) / RFU TMEM200A (11744735_a_at) / Fold change /veh TMEM200A (11744735_a_at) / RFU CCDC152 (11751479_a_at) / Fold change /veh CCDC152 (11751479_a_at) / RFU FAM211A (11726209_a_at) / Fold change /veh FAM211A (11726209_a_at) / RFU RGS16 (11746705_a_at) / Fold change /veh RGS16 (11746705_a_at) / RFU VCAN (11755009_s_at) / Fold change /veh VCAN (11755009_s_at) / RFU RHOB (11743442_s_at) / Fold change /veh RHOB (11743442_s_at) / RFU RGS16 (11720943_a_at) / Fold change /veh RGS16 (11720943_a_at) / RFU RGS16 (11720944_at) / Fold change /veh RGS16 (11720944_at) / RFU, VPS4B / Fold change vs veh, VPS4B / RFU, CREB1 / Fold change vs veh, CREB1 / RFU, DNAJC13 / Fold change vs veh, DNAJC13 / RFU, GNAQ / Fold change vs veh, GNAQ / RFU, CDK5R1 / Fold change vs veh, CDK5R1 / RFU, ZRANB3 / Fold change vs veh, ZRANB3 / RFU, CUL4A / Fold change vs veh, CUL4A / RFU, CCNY / Fold change vs veh, CCNY / RFU, UFL1 / Fold change vs veh, UFL1 / RFU, COG3 / Fold change vs veh, COG3 / RFU, DIAPH2 / Fold change vs veh, DIAPH2 / RFU, SKA2 / Fold change vs veh, SKA2 / RFU, AFF3 / Fold change vs veh, AFF3 / RFU, LMF1 / Fold change vs veh, LMF1 / RFU, IPO11 / Fold change vs veh, IPO11 / RFU, DFFB / Fold change vs veh, DFFB / RFU, FOXP1 / Fold change vs veh, FOXP1 / RFU, CARD8 / Fold change vs veh, CARD8 / RFU, STRN3 / Fold change vs veh, STRN3 / RFU, ADK / Fold change vs veh, ADK / RFU, RASSF2 / Fold change vs veh, RASSF2 / RFU, WIPF1 / Fold change vs veh, WIPF1 / RFU, LARP1B / Fold change vs veh, LARP1B / RFU, RASA1 / Fold change vs veh, RASA1 / RFU, RB1 / Fold change vs veh, RB1 / RFU, PPFIA1 / Fold change vs veh, PPFIA1 / RFU, MAT2A / Fold change vs veh, MAT2A / RFU, CCT5 / Fold change vs veh, CCT5 / RFU, WDR92 / Fold change vs veh, WDR92 / RFU, CUX1 / Fold change vs veh, CUX1 / RFU, TTC7A / Fold change vs veh, TTC7A / RFU, TMEM135 / Fold change vs veh, TMEM135 / RFU, DEPTOR / Fold change vs veh, DEPTOR / RFU, CPM / Fold change vs veh, CPM / RFU, DNAJB6 / Fold change vs veh, DNAJB6 / RFU, CACNA2D3 / Fold change vs veh, CACNA2D3 / RFU, DTX4 / Fold change vs veh, DTX4 / RFU, TFCP2 / Fold change vs veh, TFCP2 / RFU, GMCL1 /// GMCL1P1 / Fold change vs veh, GMCL1 /// GMCL1P1 / RFU, AEBP2 / Fold change vs veh, AEBP2 / RFU, SNHG1 /// SNORD22 /// SNORD25 /// SNORD26 /// SNORD27 /// SNORD28 /// SNORD29 /// SNORD31 / Fold change vs veh, SNHG1 /// SNORD22 /// SNORD25 /// SNORD26 /// SNORD27 /// SNORD28 /// SNORD29 /// SNORD31 / Fold change (Aza/veh), C12orf56 (ProbeSet 11735607_a_at) / Fold change (ACY-1035/veh), C12orf56 (ProbeSet 11735607_a_at) / Fold change (Aza/veh), FGFR1OP (ProbeSet 11751329_s_at) / Fold change (ACY-1035/veh), FGFR1OP (ProbeSet 11751329_s_at) / Fold change (Aza/veh), VPS36 (ProbeSet 11739960_a_at) / Fold change (ACY-1035/veh), VPS36 (ProbeSet 11739960_a_at) / RFU SYPL1 (11715823_x_at) / Fold change /veh SYPL1 (11715823_x_at) / RFU IGFBP7 (11715501_s_at) / Fold change /veh IGFBP7 (11715501_s_at) / RFU REEP3 (11722064_at) / Fold change /veh REEP3 (11722064_at) / RFU IGLL1 (11728026_x_at) / Fold change /veh IGLL1 (11728026_x_at): dose or concentration left out as unconfirmed
# Conditions: MV-4-11 cells, 48 hours
structure (smiles),measurement,value
Nc1ccc(-c2cccs2)cc1NC(=O)c1ccc2c(c1)cc(C1CC1)n2CCN1CCOCC1 [ACY-1035],Fold change /veh C10orf10 (11716521_a_at),0.91
